# Results from patent US9884863B2, “STAT3 inhibitor” (Board of Regents, The University of Texas System, priority 2013, dated 2018).
# Where two headings read alike, the source gives them in different places.
# Key:
# MCF-7 = experiment: MTS cell proliferation assay, MCF-7; assay type: cell-based, human
# Protocol: Cancer cells (breast cancer cell lines MCF-7, MDA-MB-361, SKBR3 and MDA-MB-231, pancreatic cancer cell lines AsPC-1. […] Proliferation was measured by treating cells with the 3-(4,5-dimethylthiazol-2-yl)-5-(3-carboxymethoxyphenyl)-2-(4-sulfophenyl)-2H-tetrazolium) (MTS) in a CellTiter 96t AQueous Non-Radioactive Cell Proliferation Assay kit from Promega, Madison, Wis., USA). Absorbance of all wells was determined by measuring OD at 550 nm after 1 hr incubation at 37° C. on a 96-well iMark™ Microplate Absorbance Reader (BioRad, Hercules, Calif.). Each individual compound was tested in quadruplicate wells for each concentration, and the results were reported as mean absorption±s.e.
# In Vitro Determination of Effects of Synthesized Compounds on Cancer Cell Proliferation. Cancer cells (breast cancer cell lines MCF-7 and MDA-MB-231, pancreatic cancer cell lines AsPC-1 and Panc-1) were […], 0.01, 0.1, 1, 5, 10, […] Proliferation was measured by treating cells with the 3-(4,5-dimethylthiazol-2-yl)-5-(3-carboxymethoxyphenyl)-2-(4-sulfophenyl)-2H-tetrazolium) (MTS) in a CellTiter 96t Aqueous Non-Radioactive Cell Proliferation Assay kit (Promega, Madison, Wis., USA). Absorbance of all wells was determined by measuring OD at 550 nm after 1 h incubation at 37° C. on a 96-well iMark™ Microplate Absorbance Reader (BioRad, Hercules, Calif.). Each individual compound was tested in quadruplicate wells for each concentration.
# MDA-MB-231 = experiment: MTS cell proliferation assay, MDA-MB-231; assay type: cell-based, human; details: Homo sapiens, read-out: IC50 MDA-MB-231 (Table 1)
# Protocol: Cancer cells (breast cancer cell lines MCF-7, MDA-MB-361, SKBR3 and MDA-MB-231, pancreatic cancer cell lines AsPC-1. BxPC3 and Panc-1) were seeded in 96-well plates at a density of 1000-2000 cells/well and treated with DMSO, 0.01, 0.1, 1, 5, 10, and […] of STAT3 individual inhibitors for 72 hrs. Proliferation was measured by treating cells with the 3-(4,5-dimethylthiazol-2-yl)-5-(3-carboxymethoxyphenyl)-2-(4-sulfophenyl)-2H-tetrazolium) (MTS) in a CellTiter 96t AQueous Non-Radioactive Cell Proliferation Assay kit from Promega, Madison, Wis., USA). Absorbance of all wells was determined by measuring OD at 550 nm after 1 hr incubation at 37° C. on a 96-well iMark™ Microplate Absorbance Reader (BioRad, Hercules, Calif.).
# In Vitro Determination of Effects of Synthesized Compounds on Cancer Cell Proliferation. Cancer cells (breast cancer cell lines MCF-7 and MDA-MB-231, pancreatic cancer cell lines AsPC-1 and Panc-1) were seeded in 96-well plates at a density of 2×10^3 cells/well and treated with DMSO, 0.01, 0.1, 1, 5, 10, and 100 μM of individual STAT3 inhibitors for 72 h. Proliferation was measured by treating cells with the 3-(4,5-dimethylthiazol-2-yl)-5-(3-carboxymethoxyphenyl)-2-(4-sulfophenyl)-2H-tetrazolium) (MTS) in a CellTiter 96t Aqueous Non-Radioactive Cell Proliferation Assay kit (Promega, Madison, Wis., USA). Absorbance of all wells was determined by measuring OD at 550 nm after 1 h incubation at 37° C. on a 96-well iMark™ Microplate Absorbance Reader (BioRad, Hercules, Calif.). Each individual compound was tested in quadruplicate wells for each concentration. […]
# [1] = Homo sapiens, MCF7, 72 h; read-out: IC50 MCF-7 (Table 1)
# [2] = MDA-MB-231, ER-negative breast cancer, 72 hrs, >10 = no effect
# [3] = Homo sapiens, MCF7, 72 h, read-out: IC50 MCF-7 (Table 1)
# [4] = MCF-7, 48 hr, μM concentrations
SMILES,melting point [°C],IC50 (MCF-7; [1]) [µM],IC50 (MDA-MB-231; [2]) [µM],other results
"C[C@H](NC(=O)c1cc(Cl)ccc1O)c1ccccc1 [Compound 9, (S)-5-Chloro-2-hydroxy-N-(1-phenylethyl)benzamide]",124 to 125,,,
"COc1ccccc1/C=C(\C#N)C(=O)Nc1ccc2c(c1)S(=O)(=O)C=C2 [RMF-1-12, 2-Cyano-N-(1,1-dioxo-1H-1λ^6-benzo[b]thiophen-6-yl)-3-(2-methoxyphenyl)acrylamide]",223 to 224,,,
"N#C/C(=C\c1cccc(O)c1)C(=O)Nc1ccc2c(c1)S(=O)(=O)C=C2 [RMF-1-10, 2-Cyano-N-(1,1-dioxo-1H-1λ^6-benzo[b]thiophen-6-yl)-3-(3-hydroxyphenyl)acrylamide]",262 to 263,,,
"O=C(Nc1ccc([N+](=O)[O-])cc1Cl)c1cc(Cl)ccc1OCC(O)CO (stereo not drawn) [HJC-3-60, 5-Chloro-N-(2-chloro-4-nitrophenyl)-2-(2,3-dihydroxypropoxy)benzamide]",,> 10,> 10,
"CC(=O)N1CCN(CCOc2ccc(Cl)cc2C(=O)Nc2ccc([N+](=O)[O-])cc2Cl)CC1 [HJC-4-27, 2-[2-(4-Acetylpiperazin-1-yl)-ethoxy]-5-chloro-N-(2-chloro-4-nitrophenyl)benzamide]",,> 10,> 10,
"O=C(Nc1ccc([N+](=O)[O-])cc1Cl)c1cc(Cl)ccc1OCCBr [HJC-3-64, 2-(2-Bromoethoxy)-5-chloro-N-(2-chloro-4-nitrophenyl)benzamide]",,,,"IC50 (MCF-7; [3]): > 10 µM; IC50 (MDA-MB-231; MDA-MB-231, 72 h): > 10 µM"
"COc1ccc(C(=O)Nc2ccc3c(c2)S(=O)(=O)C=C3)cc1 [HJC-2-15, N-(1,1-Dioxo-1H-1λ^6-benzo[b]thiophen-6-yl)-4-methoxybenzamide]",,5.85,4.97,
"O=C(Nc1ccc2c(c1)S(=O)(=O)C=C2)c1ccncc1 [HJC-3-80, N-(1,1-Dioxo-1H-1λ^6-benzo[b]thiophen-6-yl)-isonicotinamide]",,> 10,> 10,
"NCCOc1ccc(Cl)cc1C(=O)Nc1ccc2c(c1)S(=O)(=O)C=C2 [HJC-3-93, 2-(2-Amino-ethoxy)-5-chloro-N-(1,1-dioxo-1H-1λ^6-benzo[b]thiophen-6-yl)benzamide]",,3.47,3.12,
"COC1CS(=O)(=O)c2cc(NC(C)=O)ccc21 (stereo not drawn) [HJC-1-63, N-(3-Methoxy-1,1-dioxo-2,3-dihydro-1H-1λ^6-benzo[b]thiophen-6-yl)acetamide]",,> 10,> 10,
"O=C(Nc1ccc2c(c1)S(=O)(=O)C=C2)c1cc(Cl)ccc1OCCN1CCCCC1 [HJC-3-79, 5-Chloro-N-(1,1-dioxo-1H-1λ^6-benzo[b]thiophen-6-yl)-2-(2-piperidin-1-yl-ethoxy)benzamide]",,3.74,2.51,
"NCCCCOc1ccc(Cl)cc1C(=O)Nc1ccc([N+](=O)[O-])cc1Cl [HJC-4-31, 2-(4-Aminobutoxy)-5-chloro-N-(2-chloro-4-nitrophenyl)benzamide]",,3.7,2.37,inhibition on breast cancer cell proliferation (FIG. 1) (MCF-7; [4]): significant inhibition
"N#CCC(=O)Nc1ccc2c(c1)S(=O)(=O)C=C2 [HJC-3-61, 2-Cyano-N-(1,1-dioxo-1H-1λ^6-benzo[b]thiophen-6-yl)acetamide]",,,,"IC50 (MCF-7; [3]): > 10 µM; IC50 (MDA-MB-231; MDA-MB-231, 72 h): > 10 µM"
"O=C(Nc1ccc([N+](=O)[O-])cc1Cl)c1cc(Cl)ccc1OCCN1CCCCC1 [HJC-3-84, 5-Chloro-N-(2-chloro-4-nitrophenyl)-2-(2-piperidin-1-yl-ethoxy)benzamide]",,> 10,> 10,
"O=C(Nc1ccc([N+](=O)[O-])cc1Cl)c1cc(Cl)ccc1OCCN1CCNCC1 [HJC-2-52, 5-Chloro-N-(2-chloro-4-nitro-phenyl)-2-(2-piperazin-1-yl-ethoxy)benzamide]",,12.4,8.66,
"O=C(Nc1ccc2c(c1)S(=O)(=O)C=C2)c1cc(Cl)ccc1OCCBr [HJC-3-77, 2-(2-Bromo-ethoxy)-5-chloro-N-(1,1-dioxo-1H-1λ^6-benzo[b]thiophen-6-yl)benzamide]",,,,"IC50 (MCF-7; [3]): > 10 µM; IC50 (MDA-MB-231; MDA-MB-231, 72 h): > 10 µM"
"CN1CCC(Oc2ccc(Cl)cc2C(=O)Nc2ccc([N+](=O)[O-])cc2Cl)CC1 [HJC-3-81, 5-Chloro-N-(2-chloro-4-nitrophenyl)-2-(1-methylpiperidin-4-yloxy)benzamide]",,,,"IC50 (MCF-7; [3]): 4.11 µM; inhibition on breast cancer cell proliferation (FIG. 1) (MCF-7; [4]): significant inhibition; IC50 (MDA-MB-231; MDA-MB-231, 72 h): 2.69 µM"

# The next lines start with results.
melting point [°C],IC50 (MCF-7; [1]) [µM],IC50 (MDA-MB-231; [2]) [µM],SMILES,other results
245 to 246,,,"COc1cccc(/C=C(\C#N)C(=O)Nc2ccc3c(c2)S(=O)(=O)C=C3)c1 [RMF-1-35, 2-Cyano-N-(1,1-dioxo-1H-1λ^6-benzo[b]thiophen-6-yl)-3-(3-methoxyphenyl)acrylamide]",
245 to 246,,,"N#C/C(=C\c1cccc(F)c1)C(=O)Nc1ccc2c(c1)S(=O)(=O)C=C2 [RMF-1-31, 2-Cyano-N-(1,1-dioxo-1H-1λ^6-benzo[b]thiophen-6-yl)-3-(3-fluorophenyl)acrylamide]",
254 to 255,,,"N#C/C(=C\c1ccccc1[N+](=O)[O-])C(=O)Nc1ccc2c(c1)S(=O)(=O)C=C2 [RMF-1-36, 2-Cyano-N-(1,1-dioxo-1H-1λ^6-benzo[b]thiophen-6-yl)-3-(2-nitrophenyl)acrylamide]",
262 to 263,,,"N#C/C(=C\c1cccnc1F)C(=O)Nc1ccc2c(c1)S(=O)(=O)C=C2 [RMF-1-24, 2-Cyano-N-(1,1-dioxo-1H-1λ^6-benzo[b]thiophen-6-yl)-3-(2-fluoro-pyridin-3-yl)acrylamide]",
272 to 273,,,"N#C/C(=C\c1ccc([N+](=O)[O-])cc1)C(=O)Nc1ccc2c(c1)S(=O)(=O)C=C2 [RMF-1-37, 2-Cyano-N-(1,1-dioxo-1H-1λ^6-benzo[b]thiophen-6-yl)-3-(4-nitrophenyl)acrylamide]",
242 to 243,,,"N#C/C(=C\c1cccnc1Br)C(=O)Nc1ccc2c(c1)S(=O)(=O)C=C2 [RMF-1-26, 3-(2-Bromopyridin-3-yl)-2-cyano-N-(1,1-dioxo-1H-1λ^6-benzo[b]thiophen-6-yl)acrylamide]",
255 to 256,,,"Cc1cc(C)c(/C=C(\C#N)C(=O)Nc2ccc3c(c2)S(=O)(=O)C=C3)c(C)c1 [RMF-1-14, 2-Cyano-N-(1,1-dioxo-1H-1λ^6-benzo[b]thiophen-6-yl)-3-(2,4,6-trimethylphenyl)acrylamide]",
251 to 252,,,"N#C/C(=C\c1cccnc1Cl)C(=O)Nc1ccc2c(c1)S(=O)(=O)C=C2 [RMF-1-25, 3-(2-Chloro-pyridin-3-yl)-2-cyano-N-(1,1-dioxo-1H-1λ^6-benzo[b]thiophen-6-yl)acrylamide]",
255 to 256,,,"N#C/C(=C\c1cccnc1)C(=O)Nc1ccc2c(c1)S(=O)(=O)C=C2 [RMF-1-22, 2-Cyano-N-(1,1-dioxo-1H-1λ^6-benzo[b]thiophen-6-yl)-3-pyridin-3-yl-acrylamide]",
271 to 272,,,"N#C/C(=C\c1ccc(F)cc1)C(=O)Nc1ccc2c(c1)S(=O)(=O)C=C2 [RMF-1-29, 2-Cyano-N-(1,1-dioxo-1H-1λ^6-benzo[b]thiophen-6-yl)-3-(4-fluorophenyl)acrylamide]",
224 to 225,,,"COc1cc(/C=C(\C#N)C(=O)Nc2ccc3c(c2)S(=O)(=O)C=C3)cc(OC)c1OC [RMF-1-38, 2-Cyano-N-(1,1-dioxo-1H-1λ^6-benzo[b]thiophen-6-yl)-3-(3,4,5-trimethoxyphenyl)acrylamide]",
255 to 256,,,"COc1ccc(/C=C(\C#N)C(=O)Nc2ccc3c(c2)S(=O)(=O)C=C3)cn1 [RMF-1-28, 2-Cyano-N-(1,1-dioxo-1H-1λ^6-benzo[b]thiophen-6-yl)-3-(6-methoxy-pyridin-3-yl)acrylamide]",
